Patent US7566712B2, “Biaryl piperazinyl-pyridine analogues” (Neurogen Corporation, priority 2003, dated 2009)

Molecular target: T1, human capsaicin receptor (Homo sapiens, UniProt Q8NER1)
T1 construct: pBK-CMV expression construct encoding the full length human capsaicin receptor; expressed in transfected cells
Experiment: Calcium mobilization assay, determination of antagonist activity (Example 6)
Assay type: cell-based
Settings: Table II; IC50 determined as described in Example 6
Method in brief: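 Antagonism measured as inhibition of capsaicin-evoked (final concentration = EC50, from an 8-point 1 nM–3 μM curve) Fluo-3 calcium signal in stable hVR1-HEK293 cells. Test compounds at 1–5 μM final, 0.5–6 h dark preincubation at room temperature. IC50 = concentration giving 50% reduction versus agonist-only response.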

T1 sequence (Q8NER1 whole entry): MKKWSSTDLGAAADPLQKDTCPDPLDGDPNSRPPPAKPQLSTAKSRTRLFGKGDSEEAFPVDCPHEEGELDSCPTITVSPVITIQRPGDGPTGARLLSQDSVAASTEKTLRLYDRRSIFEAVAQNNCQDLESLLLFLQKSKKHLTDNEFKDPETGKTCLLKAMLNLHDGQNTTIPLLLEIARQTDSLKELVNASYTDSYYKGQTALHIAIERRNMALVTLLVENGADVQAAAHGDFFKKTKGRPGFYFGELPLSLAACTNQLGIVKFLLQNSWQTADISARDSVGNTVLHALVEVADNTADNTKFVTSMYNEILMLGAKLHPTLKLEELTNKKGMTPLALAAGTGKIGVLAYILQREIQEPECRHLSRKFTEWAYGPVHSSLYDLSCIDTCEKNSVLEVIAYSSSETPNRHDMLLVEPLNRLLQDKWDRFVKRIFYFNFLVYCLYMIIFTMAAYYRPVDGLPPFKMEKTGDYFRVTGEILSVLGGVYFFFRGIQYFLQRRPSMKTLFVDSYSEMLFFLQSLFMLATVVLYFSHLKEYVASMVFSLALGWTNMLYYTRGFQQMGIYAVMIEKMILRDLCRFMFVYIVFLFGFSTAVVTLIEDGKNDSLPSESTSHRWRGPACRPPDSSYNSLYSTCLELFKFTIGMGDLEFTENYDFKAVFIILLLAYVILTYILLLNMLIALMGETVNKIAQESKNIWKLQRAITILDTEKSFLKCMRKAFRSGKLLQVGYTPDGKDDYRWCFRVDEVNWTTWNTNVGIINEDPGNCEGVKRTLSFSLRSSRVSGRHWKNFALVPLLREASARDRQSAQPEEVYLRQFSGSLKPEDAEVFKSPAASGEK

IC50, ≤ 1000 nM:
C[C@@H]1CN(c2ncccc2C(F)(F)F)CCN1c1cc(-c2ccc3ccccc3c2)nc(N2CCOCC2)n1 [Example 491, 4-[4-{(2R)-2-methyl-4-[3-(trifluoromethyl)pyridin-2-yl]piperazin-1-yl}-6-(2-naphthyl)pyrimidin-2-yl]morpholine]
CCc1ccc(-c2cc(N3CCN(c4ncccc4C#N)C[C@H]3C)nc(N3CCOCC3)n2)cc1 [Example 509, 2-{(3R)-4-[6-(4-ethylphenyl)-2-morpholin-4-ylpyrimidin-4-yl]-3-methylpiperazin-1-yl}nicotinonitrile]
COc1ccc(-c2cc(N3CCN(c4ncccc4Cl)C[C@H]3C)nc(N3CCOCC3)n2)cc1F [Example 542, 4-[4-[(2R)-4-(3-chloropyridin-2-yl)-2-methylpiperazin-1-yl]-6-(3-fluoro-4-methoxyphenyl)pyrimidin-2-yl]morpholine]
CCN(CC)CCN(C)c1nc(-c2ccc(F)c(Cl)c2)cc(N2CCN(c3ncccc3C(F)(F)F)CC2)n1 [Example 566, N-1-(4-(3-chloro-4-fluorophenyl)-6-{4-[3-(trifluoromethyl)pyridin-2-yl]piperazin-1-yl}pyrimidin-2-yl)-N-2-,N-2-diethyl-N-1-methylethane-1,2-diamine]
CCOC(=O)c1cccc(-c2nc(N3CCOCC3)nc(N3CCN(c4ccccn4)CC3)n2)c1 [Example 434, ethyl 3-[4-morpholin-4-yl-6-(4-pyridin-2-ylpiperazin-1-yl)-1,3,5-triazin-2-yl]benzoate]
C=CCN1CCN(c2nc(-c3ccc(Cl)cc3)nc(N3CCN(c4ncccc4C(F)(F)F)CC3)n2)CC1 [Example 445, 2-(4-allylpiperazin-1-yl)-4-(4-chlorophenyl)-6-{4-[3-(trifluoromethyl)pyridin-2-yl]piperazin-1-yl}-1,3,5-triazine]
C[C@@H]1CN(c2ncccc2Cl)CCN1c1cc(-c2cccc(OC(F)(F)F)c2)nc(N2CCOCC2)n1 [Example 535, 4-{4-[(2R)-4-(3-chloropyridin-2-yl)-2-methylpiperazin-1-yl]-6-[3-(trifluoromethoxy)phenyl]pyrimidin-2-yl}morpholine]
Fc1ccc(-c2cc(N3CCN(c4ncccc4C(F)(F)F)CC3)nc(N3CCNCC3)n2)cc1Cl [Example 546, 4-(3-chloro-4-fluorophenyl)-2-piperazin-1-yl-6-{4-[3-(trifluoromethyl)pyridin-2-yl]piperazin-1-yl}pyrimidine]

Same assay, conditions: Table II; IC50 determined as described in Example 6 (antagonist activity, calcium mobilization)

IC50, ≤ 1000 nM:
CC1CCCN1c1nc(-c2ccc(F)c(Cl)c2)cc(N2CCN(c3ncncc3Cl)CC2)n1 (centres unmarked) [Example 1010, 4-(3-chloro-4-fluorophenyl)-6-[4-(5-chloropyrimidin-4-yl)piperazin-1-yl]-2-(2-methylpyrrolidin-1-yl)pyrimidine]
CC1CCCN1c1nc(-c2ccc(F)c(Cl)c2)cc(N2CCN(c3ncc(Br)cn3)CC2)n1 (centres unmarked) [Example 1002, 4-[4-(5-bromopyrimidin-2-yl)piperazin-1-yl]-6-(3-chloro-4-fluorophenyl)-2-(2-methylpyrrolidin-1-yl)pyrimidine]
COc1ncc(Cl)c(N2CCN(c3cc(-c4ccc(F)cc4)nc(N4CCOCC4)n3)[C@H](C)C2)n1 [Example 972, 4-[4-[(2R)-4-(5-chloro-2-methoxypyrimidin-4-yl)-2-methylpiperazin-1-yl]-6-(4-fluorophenyl)pyrimidin-2-yl]morpholine]
C[C@@H]1CN(c2ccccc2F)CCN1c1cc(-c2ccc(F)c(Cl)c2)nc(N2CCCC2)n1 [Example 990, 4-(3-chloro-4-fluorophenyl)-6-[(2R)-4-(2-fluorophenyl)-2-methylpiperazin-1-yl]-2-pyrrolidin-1-ylpyrimidine]
C[C@@H]1CN(c2ncccc2Cl)CCN1c1cc(-c2ccc(F)c(Cl)c2)nc(N2CCC[C@@H]2C)n1 [Example 984, 4-(3-chloro-4-fluorophenyl)-6-[(2R)-4-(3-chloropyridin-2-yl)-2-methylpiperazin-1-yl]-2-[(2S)-2-methylpyrroiidin-1-yl]pyrimidine]

Same assay, conditions: Table II; determined as described in Example 6 (antagonist activity); "*" = 1 micromolar or less

IC50, ≤ 1000 nM:
CCCN1CCN(c2nc(-c3ccc(F)c(F)c3)cc(N3CCN(c4ncccc4Cl)C[C@H]3C)n2)CC1 [Example 788, 4-[(2R)-4-(3-chloropyridin-2-yl)-2-methylpiperazin-1-yl]-6-(3,4-difluorophenyl)-2-(4-propylpiperazin-1-yl)pyrimidine]
Fc1ccc(-c2cc(N3CCN(c4ncccc4C(F)(F)F)CC3)nc(-c3ccccn3)n2)cc1Cl [Example 830, 4-(3-chloro-4-fluorophenyl)-2-pyridin-2-yl-6-{4-[3-(trifluoromethyl)pyridin-2-yl]piperazin-1-yl}pyrimidine]
C[C@@H]1CN(c2ncccc2Cl)CCN1c1cc(-c2ccc(C#N)cc2)nc(N2CCOCC2)n1 [Example 861, 4-{6-[(2R)-4-(3-chloropyridin-2-yl)-2-methylpiperazin-1-yl]-2-morpholin-4-ylpyrimidin-4-yl}benzonitrile]
Cc1cc(O)cnc1N1CCN(c2cc(-c3ccc(F)c(Cl)c3)nc(N3CCCC3C)n2)CC1 (centres unmarked) [Example 815, 6-{4-[6-(3-chloro-4-fluorophenyl)-2-(2-methylpyrrolidin-1-yl)pyrimidin-4-yl]piperazin-1-yl}-5-methylpyridin-3-ol]
CCOC(=O)C1CCCN(c2nc(-c3ccc(F)c(Cl)c3)cc(N3CCN(c4ncccc4C(F)(F)F)CC3)n2)C1 (centres unmarked) [Example 798, ethyl 1-(4-(3-chloro-4-fluorophenyl)-6-{4-[3-(trifluoromethyl)pyridin-2-yl]piperazin-1-yl}pyrimidin-2-yl)piperidine-3-carboxylate]
CSc1nc(-c2ccc(F)cc2)cc(N2CCN(c3ncccc3Cl)C[C@H]2C)n1 (stereo in doubt) [Example 839, 4-[4-(3-chloropyridin-2-yl)-2-methylpiperazin-1-yl]-6-(4-fluorophenyl)-2-(methylthio)pyrimidine]

Same assay, conditions: determined as described in Example 6 (calcium mobilization, antagonist activity); Table II

IC50, ≤ 1000 nM:
Cc1cc(-c2cc(N3CCN(c4ncccc4C(F)(F)F)C[C@H]3C)nc(N3CCCCC3C)n2)ccc1F (stereo partly drawn) [Example 770, 4-(4-fluoro-3-methylphenyl)-2-(2-methylpiperidin-1-yl)-6-{(2R)-2-methyl-4-[3-(trifluoromethyl)pyridin-2-yl]piperazin-1-yl}pyrimidine]
CC(C)N(C)c1nc(-c2ccc(F)c(Cl)c2)cc(N2CCN(c3ncccc3Cl)CC2)n1 [Example 725, 4-(3-chloro-4-fluorophenyl)-6-[4-(3-chloropyridin-2-yl)piperazin-1-yl]-N-isopropyl-N-methylpyrimidin-2-amine]
O=C1CCN1c1nc(-c2ccc(F)c(Cl)c2)cc(N2CCN(c3ncccc3C(F)(F)F)CC2)n1 [Example 747, 1-(4-(3-chloro-4-fluorophenyl)-6-{4-(3-(trifluoromethyl)pyridin-2-yl]piperazin-1-yl}pyrimidin-2-yl)azetidin-2-one]
Cc1cc(-c2cc(N3CCN(c4ncccc4C(F)(F)F)C[C@H]3C)nc(N3C(C)CCC3C)n2)ccc1F (stereo partly drawn) [Example 755, 2-(2,5-dimethylpyrrolidin-1-yl)-4-(4-fluoro-3-methylphenyl)-6-{(2R)-2-methyl-4-[3-(trifluoromethyl)pyridin-2-yl]piperazin-1-yl}pyrimidine]
Cc1cc(-c2cc(N3CCN(c4ncccc4C(F)(F)F)C[C@H]3C)nc(N(C)C(C)C)n2)ccc1F [Example 762, 4-(4-fluoro-3-methylphenyl)-N-isopropyl-N-methyl-6-{(2R)-2-methyl-4-[3-(trifluoromethyl)pyridin-2-yl]piperazin-1-yl}pyrimidin-2-amine]
Cn1ccnc1-c1nc(-c2ccc(F)c(Cl)c2)cc(N2CCN(c3ncccc3C(F)(F)F)CC2)n1 [Example 662, 4-(3-chloro-4-fluorophenyl)-2-(1-methyl-1H-imidazol-2-yl)-6-{4-[3-(trifluoromethyl)pyridin-2-yl]piperazin-1-yl}pyrimidine]
Cc1cc(-c2cc(N3CCN(c4ncccc4C(F)(F)F)CC3)nc(N3CCC3C)n2)ccc1F (centres unmarked) [Example 756, 4-(4-fluoro-3-methylphenyl)-2-(2-methylazetidin-1-yl)-6-{4-[3-(trifluoromethyl)pyridin-2-yl]piperazin-1-yl}pyrimidine]
CC1(C)CN(c2nc(-c3ccc(F)c(Cl)c3)cc(N3CCN(c4ncccc4C(F)(F)F)CC3)n2)CCO1 [Example 636, 4-(4-(3-chloro-4-fluorophenyl)-6-{4-[3-(trifluoromethyl)pyridin-2-yl]piperazin-1-yl}pyrimidin-2-yl)-2,2-dimethylmorpholine]
CCN(CC)c1nc(-c2ccc(F)c(Cl)c2)cc(N2CCN(c3ncccc3C(F)(F)F)CC2)n1 [Example 573, 4-(3-chloro-4-fluorophenyl)-N,N-diethyl-6-{4-[3-(trifluoromethyl)pyridin-2-yl]piperazin-1-yl}pyrimidin-2-amine]
CCN(C)c1nc(-c2ccc(F)c(C)c2)cc(N2CCN(c3ncccc3C(F)(F)F)CC2)n1 [Example 738, N-ethyl-4-(4-fluoro-3-methylphenyl)-N-methyl-6-{4-[3-(trifluoromethyl)pyridin-2-yl]piperazin-1-yl)pyrimidin-2-amine]
